Measurements as given in patent publication US5981576A, “(Methylsulfonyl)phenyl-2-(5H)-furanones as COX-2 inhibitors” (Merck Frosst Canada, Inc., priority 1998, dated 1999).

How the values were obtained:
COX-1 [1] = molecular target: T1, COX-1 (Homo sapiens, UniProt P23219); assay: Human whole blood assay, COX-1 (clotting-induced TxB2 production); assay type: cell-based; conditions: Table III, read-out: COX-1 (IC50) HWB
From the text: (§1) As well, platelets in whole blood contain a large amount of the COX-1 enzyme. Immediately following blood clotting, platelets are activated through a thrombin-mediated mechanism. […] Therefore, the degree of selectivity by the test compound can be determined by measuring the levels of PGE2 after LPS induction (COX-2) and TxB2 following blood clotting (COX-1) in the same assay.
B. COX-1 (Clotting-induced TxB2 production)
Fresh blood is collected into vacutainers containing no anticoagulants. Aliquots of 500 μL are immediately transferred to siliconized microcentrifuge tubes preloaded with 2 μL of either DMSO or a test compound at final concentrations varying from 10 nM to 30 μM. The tubes are vortexed and incubated at 37° C. for 1 hour to allow blood to clot. At the end of incubation, serum is obtained by centrifugation (12,000×g for 5 min.). A 100 μL aliquot of serum is mixed with 400 μL of methanol for protein precipitation.

COX-1 [2] = molecular target: T1, COX-1; assay: biochemical; assay type: biochemical; conditions: Table III; U937
Method: Compounds are tested as inhibitors of cyclooxygenase activity in whole cell cyclooxygenase assays. Both of these assays measure prostaglandin E2 synthesis in response to arachidonic acid, using a radioimmunoassay. Cells used for these assays are human osteosarcoma 143 cells (which specifically express COX-2) and human U-937 cells (which specifically express COX-1). In these assays, 100% activity is defined as the difference between prostaglandin E2 synthesis in the absence and presence of arachidonate.
U 937 cells are pelleted by centrifugation at 500×g for 5 min and washed once with phosphate-buffered saline and repelleted. Cells are resuspended in homogenization buffer consisting of 0.1 M Tris-HCl, pH 7.4, 10 mM EDTA, 2 μg/ml leupeptin, 2 μg/ml soybean trypsin inhibitor, 2 μg/ml aprotinin and 1 mM phenyl methyl sulfonyl fluoride. The cell suspension is sonicated 4 times for 10 sec and is centrifuged at 10,000×g for 10 min at 4° C. The supernatant is centrifuged at 100,000×g for 1 hr at 4 ° C. The 100,000×g microsomal pellet is resuspended in 0.1 M Tris-HCl, pH 7.4, 10 mM EDTA to approximately 7 mg protein/ml and stored at -80° C.
Microsomal preparations are thawed immediately prior to use, subjected to a brief sonication, and then diluted to a protein concentration of 125 μg/ml in 0.1 M Tris-HCl buffer, pH 7.4 containing 10 mM EDTA, 0.5 mM phenol, 1 mM reduced glutathione and 1 μM hematin. Assays are performed in duplicate in a final volume of 250 μl. Initially, 5 μd of DMSO vehicle or drug in DMSO are added to 20 μl of 0.1 M Tris-HCl buffer, pH 7.4 containing 10 mM EDTA in wells of a 96-deepwell polypropylene titre plate. 200 μl of the microsomal preparation are then added and pre-incubated for 15 min at room temperature before addition of 25 μl of […] in 0.1 M Tris-HCl and 10 mM EDTA, pH 7.4. […] Cyclooxygenase activity is defined as the difference between PGE2 levels in samples incubated in the presence of arachidonic acid and ethanol vehicle.

COX-2 [3] = molecular target: T2, COX-2 (Homo sapiens, UniProt P35354); assay: cell-based; conditions: Table IV; CHO[hCOX-2] cells, 10 μM AA
T2 sequence (P35354 18-604): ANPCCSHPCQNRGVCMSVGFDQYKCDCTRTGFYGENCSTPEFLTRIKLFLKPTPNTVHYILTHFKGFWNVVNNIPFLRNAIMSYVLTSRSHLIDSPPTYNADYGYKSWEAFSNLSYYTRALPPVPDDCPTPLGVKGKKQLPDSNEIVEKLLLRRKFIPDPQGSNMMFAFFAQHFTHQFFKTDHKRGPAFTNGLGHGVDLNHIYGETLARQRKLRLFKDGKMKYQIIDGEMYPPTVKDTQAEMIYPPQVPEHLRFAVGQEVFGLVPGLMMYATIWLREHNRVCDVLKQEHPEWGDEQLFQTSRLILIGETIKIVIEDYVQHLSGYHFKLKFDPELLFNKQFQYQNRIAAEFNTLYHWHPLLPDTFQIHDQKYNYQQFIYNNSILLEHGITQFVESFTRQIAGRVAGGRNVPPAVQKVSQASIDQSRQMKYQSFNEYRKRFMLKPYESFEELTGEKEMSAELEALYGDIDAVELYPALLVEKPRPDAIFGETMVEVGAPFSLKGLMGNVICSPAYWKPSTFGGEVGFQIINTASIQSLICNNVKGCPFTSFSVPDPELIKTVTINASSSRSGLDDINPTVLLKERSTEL
Method: Chinese hamster ovary (CHO) cell lines which have been stably transfected with an eukaryotic expression vector pCDNAIII containing either the human COX-1 or COX-2 cDNA's are used for the assay. These cell lines are referred to as CHO [hCOX-1] and CHO [hCOX-2], respectively. […] Cells (0.3×10^6 cells in 200 μl) are preincubated with 3 μl of the test drug or DMSO vehicle for 15 min at 37° C. […] Cells are then challenged in the presence or absence of drug with the AA/HBSS solution to yield a final concentration of 0.5 μM AA in the CHO[hCOX-1] assay and a final concentration of 10 μM AA in the CHO[hCOX-2] assay. […] The samples are centrifuged at 300×g at 4° C. for 10 min, and an aliquot of the clarified supernatant is appropriately diluted for the determination of PGE2 levels using an enzyme-linked immunoassay for PGE2 (Correlate PGE2 enzyme immunoassay kit, Assay Designs, Inc.). Cyclooxygenase activity in the absence of test compounds is determined as the difference in PGE2 levels of cells challenged with arachidonic acid versus the PGE2 levels in cells mock-challenged with ethanol vehicle. Inhibition of PGE2 synthesis by test compounds is calculated as a percentage of the activity in the presence of drug versus the activity in the positive control samples.

COX-2 [4] = molecular target: T2, COX-2; assay: cell-based; conditions: Table IV; human whole blood, LPS-induced PGE2; read-out: COX-2 (IC50, μM) HWB
From the text: as §1
A. COX-2 (LPS-induced PGF, production)
Fresh blood is collected in heparinized tubes by venipuncture from both male and female volunteers. The subjects have no apparent inflammatory conditions and have not taken any NSAIDs for at least 7 days prior to blood collection. Plasma is immediately obtained from a 2 mL blood aliquot to use as blank (basal levels of PGE2).

COX-2 [5] = molecular target: T2, COX-2; assay: biochemical; conditions: Table IV; purified human COX-2; read-out: COX-2 (IC50, μM) TMPD
Method: Assay of the activity of purified human COX-2
The assay mixture (180 μL) contains 100 mM sodium phosphate, pH 6.5, 2 mM genapol X-100, 1 μM hematin, 1 mg/ml gelatin, 80-100 units of purified enzyme (One unit of enzyme is defined as the amount of enzyme required to produce an O.D. change of 0.001/min at 610 nm) and 4 μL of the test compound in DMSO. The mixture is pre-incubated at room temperature (22° C.) for 15 minutes prior to initiation of the enzymatic reaction by the addition of 20 μL of a sonicated solution of 1 mM arachidonic acid (AA) and 1 mM TMPD in assay buffer (without enzyme or hematin). The enzymatic activity is measured by estimation of the initial velocity of TMPD oxidation over the first 36 sec of the reaction. […] IC50 values are derived from 4-parameter least squares non-linear regression analysis of the log-dose vs % inhibition plot.

Rat Paw Edema = assay: Rat paw edema assay (carrageenan); assay type: in vivo, Male Sprague-Dawley rats; conditions: 3 h, Table IV, po
Method: Male Sprague-Dawley rats (150-200 g) are fasted overnight and are given, po, either vehicle (1% methocel or 5% Tween 80) or a test compound. One hr later, a line is drawn using a permanent marker at the level above the ankle in one hind paw to define the area of the paw to be monitored. The paw volume (V0) is measured using a plethysmometer (Ugo-Basile, Italy) based on the principle of water displacement. […] The animals are sacrificed by CO2 asphyxiation and the absence or presence of stomach lesions scored. Data is compared with the vehicle-control values and percent inhibition calculated. All treatment groups are coded to eliminate observer bias.

T1 sequence (P23219 24-599): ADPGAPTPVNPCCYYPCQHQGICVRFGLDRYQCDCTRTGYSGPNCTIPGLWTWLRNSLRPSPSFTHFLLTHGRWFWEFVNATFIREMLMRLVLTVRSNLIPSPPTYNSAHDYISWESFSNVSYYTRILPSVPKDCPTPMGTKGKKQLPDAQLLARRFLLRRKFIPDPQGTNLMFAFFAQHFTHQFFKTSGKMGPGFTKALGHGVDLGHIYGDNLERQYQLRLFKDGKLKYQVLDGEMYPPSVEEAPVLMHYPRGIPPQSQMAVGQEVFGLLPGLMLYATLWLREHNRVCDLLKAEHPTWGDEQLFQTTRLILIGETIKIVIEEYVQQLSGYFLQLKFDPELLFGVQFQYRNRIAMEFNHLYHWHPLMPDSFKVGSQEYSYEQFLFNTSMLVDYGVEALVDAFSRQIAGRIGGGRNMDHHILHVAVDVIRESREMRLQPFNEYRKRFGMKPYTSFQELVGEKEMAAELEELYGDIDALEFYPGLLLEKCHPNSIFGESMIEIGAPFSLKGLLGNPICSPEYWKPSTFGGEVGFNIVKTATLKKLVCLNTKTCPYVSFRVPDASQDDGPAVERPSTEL

IC50 (COX-1 [1]) [µM]	IC50 (COX-1 [2]) [µM]	IC50 (COX-2 [3]) [µM]	IC50 (COX-2 [4]) [µM]	IC50 (COX-2 [5]) [µM]	SMILES	ED50 (Rat Paw Edema) [mg/kg]
		0.2	0.61	7.8	CC1(C)OC(=O)C(Oc2cncc(Cl)c2)=C1c1ccc(S(C)(=O)=O)cc1 [Example 49, 3-(3-Chloro-5-pyridiloxy)-5,5-dimethyl-4-(4-(methylsulfonyl)phenyl)-5H-furan-2-one]	
		0.06	0.62	8	CC[C@@]1(C)OC(=O)C(Oc2ccc(F)cn2)=C1c1ccc(S(C)(=O)=O)cc1 [Example 162, (5R)-3-(5-Fluoro-2-pyridyloxy)-5-ethyl-5-methyl-4-(4-methylsulfonyl)-phenyl-5H-furan-2-one]	

The remaining lines, values behind:

SMILES	IC50 (COX-1 [1]) [µM]	IC50 (COX-1 [2]) [µM]	IC50 (COX-2 [3]) [µM]	IC50 (COX-2 [4]) [µM]	IC50 (COX-2 [5]) [µM]	ED50 (Rat Paw Edema) [mg/kg]
CC1(C)OC(=O)C(Oc2ccc(F)c(F)c2)=C1c1ccc(S(C)(=O)=O)cc1 [Example 1, 3-(3,4-Difluorophenoxy)-5,5-dimethyl-4-(4-(methylsulfonyl)phenyl)-5H-furan-2-one]	9.2	0.99				
CC1(C)OC(=O)C(OC2CCCCC2)=C1c1ccc(S(C)(=O)=O)cc1 [Example 14, 3-Cyclohexyloxy-5,5-dimethyl-4-(4-(methylsulfonyl)phenyl)-5H-furan-2-one]	58.3	> 10				
COC1(C)OC(=O)C(Oc2ccc(F)c(F)c2)=C1c1ccc(S(C)(=O)=O)cc1 (stereo not shown) [Example 24c, 3-(3,4-Difluorophenoxy)-5-methoxy-5-methyl-4-(4-(methylsulfonyl)phenyl)-5H-furan-2-one]	25.3	> 3				
C[C@]1(CC(F)(F)F)OC(=O)C(Oc2ccc(F)cc2)=C1c1ccc(S(C)(=O)=O)cc1 [Example 166, (5R)-3-(4-fluorophenoxy)-5-methyl-4-(4-methylsulfonyl)phenyl-5-(2,2,2-trifluoroethyl)-5H-furan-2-one]						4.9
